Columns and labels:
Experiment in all cases: Act1 activation of Bcas1 proteolysis by mutated protein
Type in all cases: biochemical, Chlamydia trachomatis
[1] = tested on: CtHtrA R299W/R373A; settings: R299W/R373A mutant; Act1 120 µM
Text: (§1) The hexameric CtHtrA molecular model was examined to identify the putative PDZ1 activator binding cleft (Fig. 4). The base of this cleft in CtHtrA is a hydrophobic pocket formed by the residues L302 and I365 (V328 in E. coli DegP) (Fig. 4). L302 and I365 were targeted for site directed mutagenesis (L302N and I365D) to make this non-polar pocket either polar or charged. The role of a potential conformational change caused by movement of the whole PDZ1 domain relative to the protease subunit was also tested by mutating a highly conserved arginine residue (R299W) on the flexible loop between the protease and PDZ domains. This mutation was made in order to alter the flexibility around this residue while occupying a similar sized area. Additionally, a second mutation was made in conjunction with the R299W mutation on the residue R373A which potentially forms a salt bridge between the PDZ domain and protease domain. This double mutation was made in order to reduce the flexibility and disrupt the mobile salt bridge involved in the PDZ1:protease domain interface. The R373A mutation was also made independently of R299W. These mutated proteins were assayed to examine the impact of the changes on Act1 activation on the Bcas1 substrate proteolysis. […]
(§2) The purified recombinant protein was examined by Coomassie stained polyacrylamide gels and activity was checked using ß-casein cleavage assays prior to use in peptide assays. […] Protease assays using pNA labelled peptides were conducted using the xMARK Microplate spectrophotometer (Bio-Rad) at 405 nm, incubated at 37°C, with a reading taken every 10 s for 30 min. The maximum slope over a minimum of 8 readings was used for the data analysis. […] The assays were excited at 340 nm and emission was detected at 405 nm with a gain of 1000, the assays were monitored every 20 s or at the minimum cycle time for up to 40 min. […] The assay results shown for the fluorescent compounds have been normalised for the amount of fluorescent emission detected using a standard curve of known concentrations of the MCA fluorophore under the identical assay conditions. […]

[2] = tested on: CtHtrA I365D; settings: I365D mutant; Act1 120 µM
Text: as §1, §2

[3] = tested on: CtHtrA R373A; settings: R373A mutant; Act1 120 µM
Text: as §1, §2

Measured: effect of Act1 on Bcas1 proteolysis rate

H-VLGPVRGPFPIIV-OH [Act1]
failed to increase the proteolysis rate: all assays above

— article PMC3169616, “Unique Residues Involved in Activation of the Multitasking Protease/Chaperone HtrA from Chlamydia trachomatis” (PLoS ONE, 2011)
